Assay results as given in BindingDB's records for doi:10.1021/jm00040a015 (Pfizer, 1994).

Biological target: cAMP-dependent protein kinase catalytic subunit alpha (Bos taurus, UniProt P00517)
Experiment: PKA Inhibition Assay
Source text: IC50 is the inhibitor concentration, which inhibits 50% of PKA activity that catalyzes the transfer of the terminal phosphate from [gamma-32P] labeled ATP to a synthetic kemptide peptide substrate.

Row | Compound | IC50 (pH 7.4, 30 °C) | IC50
1 | Oc1cc2nc(O)c3cc(O)c(O)cc3c2cc1O [2,3,8,9-tetrahydroxy-5,6-dihydrophenanthridin-6-one] | > 800 µM | 
2 | CCn1c(=O)c2cc(O)c(O)cc2c2cc(O)c(O)cc21 [5-ethyl-2,3,8,9-tetrahydroxy-5,6-dihydrophenanthridin-6-one] | > 2000 µM | 
3 | O=S(=O)(c1ccccc1)n1c2cc(O)c(O)cc2c2cc(O)c(O)cc21 [9-(benzenesulfonyl)-9H-carbazole-2,3,6,7-tetrol] |  | > 600 µM
